“Also recorded” adds a separate entry of the source.
Assays:
S. aureus RnpA = target: T1, S. aureus RnpA (Staphylococcus aureus, UniProt P0A0H5); assay: RnpA-mediated RNA (spa mRNA) degradation inhibitory titration assay; format: biochemical; conditions: for IC50: 1 pmol spa mRNA, 20 pmol RnpA, one hour at 37° C., agarose gel, read-out: apparent IC50
T1 construct: hexahistidine-tag (pET-30 Ek/LIC leader) (N); made in house; host or cells: E. coli BL21 (DE3)
T1 sequence (P0A0H5 1-117): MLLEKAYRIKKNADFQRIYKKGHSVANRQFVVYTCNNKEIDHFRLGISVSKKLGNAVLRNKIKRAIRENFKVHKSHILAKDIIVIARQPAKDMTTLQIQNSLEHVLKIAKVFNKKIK
Description: Specifically, members of the ActiProbe-25K and Natural Product libraries (29,940 compounds total; TimTec Inc.; Newark, Del.) were screened for small molecule inhibitors of S. aureus RnpA mediated total bacterial RNA degradation. All reactions (50 μl) were performed in 96-well format and contained 20 pmol RnpA, 200 ng S. aureus total RNA, and ˜5 μM of each compound in 1× reaction buffer (2 mM NaCl, 2 mM MgCl2, 50 mM Tris-HCl, pH 6.0). Mixtures were incubated at 37° C. for 20 min at which time Quant-iT RiboGreen® (100 μl; Invitrogen) was added to quantify the amount of RNA substrate remaining. Percent enzyme inhibition was calculated as remaining substrate/starting substrate*100. For inhibitory titration assays, 1 pmol of spa mRNA was incubated with 20 pmol RnpA alone (positive control) or in the presence of one of four compounds for one hour at 37° C. […] Following this, 20 μl of each reaction mixture were subjected to electrophoresis in a 1.2% formaldehyde-containing agarose gel and visualized by ethidium bromide staining.

MRSA = assay: Antimicrobial susceptibility testing, broth microdilution (CLSI); format: cell-based, Staphylococcus aureus; conditions: 18 hr at 37° C.
Description: In some examples, compounds can be further assayed using the Mueller Hinton (MH) broth antibacterial assay as specified by the Clinical and Laboratory Standards Institute MIC broth microdilution protocol (see Methods for Dilution Antimicrobial Susceptibility Tests for Bacteria That Grow Aerobically; Approved Standard, In The Clinical and Laboratory Standards Institute (CLSI, formerly NCCLS), 7th ed., January 2006, 26 (2), M7-A7; see also Performance Standards for Antimicrobial Susceptibility Testing; Eighteenth Informational Supplement, In The Clinical and Laboratory Standards Institute (CLSI, formerly NCCLS), January 2008, 28 (1), M100-S18).
Microtiter plates containing serial dilutions of the compounds 1000 (0, 4, 8, 16, 32, 64, and 128 μg/ml) were inoculated with 10^5 colony forming units (CFU)/ml and incubated for 18 hr at 37° C.

HepG2 human hepatocytes = assay: HepG2 MTT cytotoxicity assay; format: cell-based; conditions: 1×, 2×, 4× the MIC value for 48 hours
Description: It was then assessed whether RnpA-inhibitory agent concentrations corresponding to the effective bacterial MIC values (10-50 μg/ml) elicited human cell cytotoxicity. HepG2 human hepatocytes (10^5 cells) were seeded in individual wells of a microtitre plate and incubated for 16 hr at 37° C. with 5% carbon dioxide in Dulbecco's Modified Eagle Media supplemented with 10% fetal bovine serum. Cells were then challenged with Mitomycin C (5 or 10 μg/ml; positive control) or 1, 2, or 4 times (1×, 2×, 4×) the MIC value of the indicated RnpA inhibitory compound for 48 hours. Cell viability was measured spectrophotometrically (570 nm) following the addition and subsequent reduction of tetrazolium salt (MTT) within metabolically active cells, as per the manufacturer's recommendations (American Type Culture Collection; Manassas, Va.).

Compound | inhibition of RnpA-mediated RNA degradation (in words) (S. aureus RnpA) | IC50 (S. aureus RnpA) | antimicrobial activity against MRSA (in words) (MRSA) | human cell cytotoxicity / cell survival (in words) (HepG2 human hepatocytes) | human cell cytotoxicity / cell survival (in words) (HepG2 human hepatocytes; listed as ST003531) | human cell cytotoxicity / cell survival (in words) (HepG2 human hepatocytes; listed as ST006630)
CC(C)c1ccc(OCC(=O)NNC(=S)NC(=O)c2ccco2)cc1 [RNPA-2000] | inhibit RnpA-mediated RNA degradation; also recorded: excellent RnpA-inhibitory activity | 15 to 20 µM | moderate antimicrobial activity; also recorded: good antistaphylococcal activity | do not cause human cytotoxicity | did not affect human cell survival | –
O=C(O)CCN1C(=O)/C(=C\c2ccc(-c3ccc(Cl)cc3)o2)SC1=S [RNPA-3000] | inhibit RnpA-mediated RNA degradation; also recorded: excellent RnpA-inhibitory activity | 12.5 to 20 µM | moderate antimicrobial activity; also recorded: good antistaphylococcal activity | do not cause human cytotoxicity | – | did not affect human cell survival
